Reference: the NIST ThermoML archive (doi:10.1016/j.tca.2017.07.003)
Numbers after ± are expanded uncertainties.

Conditions: Crystal; DTA

Compared with `CC(C)CNC(=O)c1cc(C(=O)NCC(C)C)cc(C(=O)NCC(C)C)c1` [N,N',N''-tris(2-methylpropyl)-1,3,5-benzenetricarboxamide], `CCCCNC(=O)c1cc(C(=O)NCCCC)cc(C(=O)NCCCC)c1` [N,N',N''-tributyl-1,3,5-benzenetricarboxamide] is lower in Normal melting temperature: 300.00 ± 1 °C for the first, 229.00 ± 1 °C for the second.

`CC(C)(C)NC(=O)c1cc(C(=O)NC(C)(C)C)cc(C(=O)NC(C)(C)C)c1` [N,N',N''-tris(tert-butyl)-1,3,5-benzenetricarboxamide] showed a Normal melting temperature of 304.00 ± 1 °C.
